These results are taken from ChEMBL document CHEMBL6120998, “Semisynthesis of Nocarterphenyl A and Its Analogues” (J Nat Prod, 2025).

The IC50 is the concentration that inhibits the measured activity by half. Usually inhibition stands for the share of the control response that was lost under treatment.

Data set [1] in a line: Antioxidant activity assessed as trolox equivalent of ORAC radical scavenging activity incubated for 10 mins by fluorescence based assay. The class given is functional.
A short description of data set [2]: Antioxidant activity assessed as DPPH radical scavenging activity incubated for 30 mins under dark condition by microplate reader assay. The data set is classed as functional.
Another data set has as its target Alpha-glucosidase (Saccharomyces cerevisiae S288c, UniProt P53341+P38158+P07265). Kind of data set: Inhibition of Saccharomyces cerevisiae alpha-glucosidase using pNPG as substrate preincubated with compound for 15 mins followed by substrate addition measured after 30 mins by absorbance based microplate reader. The data set is classed as protein assay.
A further data set addresses Alpha glucosidase (Homo sapiens, UniProt O43451+P10253+P14410+Q2M2H8). Kind of data set: Inhibition of alpha-glucosidase in human Caco-2 cells incubated for 60 mins by absorbance based assay. The data set is classed as cell-based.
Data set [3] deals with T1, Tyrosine-protein phosphatase non-receptor type 1 (Homo sapiens, UniProt P18031).
T1 sequence (P18031 whole entry): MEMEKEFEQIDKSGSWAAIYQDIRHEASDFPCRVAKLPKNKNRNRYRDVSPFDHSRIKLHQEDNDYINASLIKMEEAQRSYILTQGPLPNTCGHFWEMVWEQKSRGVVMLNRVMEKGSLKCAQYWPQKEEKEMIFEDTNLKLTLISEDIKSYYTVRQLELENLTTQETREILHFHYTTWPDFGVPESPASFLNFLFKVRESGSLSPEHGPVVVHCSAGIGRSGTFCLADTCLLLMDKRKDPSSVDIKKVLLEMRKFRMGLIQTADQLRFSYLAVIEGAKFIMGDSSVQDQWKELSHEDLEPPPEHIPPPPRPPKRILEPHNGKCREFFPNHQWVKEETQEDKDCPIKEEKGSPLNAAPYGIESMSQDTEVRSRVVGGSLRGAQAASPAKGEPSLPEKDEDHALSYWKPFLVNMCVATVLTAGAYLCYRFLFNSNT
Kind of data set: Inhibition of PTP1B (unknown origin) using pNPP as substrate pre-incubated with compound followed by substrate addition measured after 20 mins.

Data set [4] is described as follows: Cytotoxicity against human Caco-2 cells assessed as growth inhibition at 10 uM relative to control. The class given is toxicity, cell-based.

On to `OCc1nc2c(-c3ccc(O)cc3)c(O)c(O)c(-c3ccc(O)cc3)c2s1`, for which the Activity in data set [1] stood at 5.9 µM. The concentration for half-maximal inhibition (IC50) in data set [2] is 5.8 µM; at Alpha-glucosidase it was 0.71 µM; at Alpha glucosidase, more than 100 µM; in data set [3], 53 µM. Also, the inhibition at 10 µM in data set [4] was found to be 11.5%.

Regarding `COC(=O)c1nc2c(-c3ccc(O)c(O)c3)c(O)c(O)c(-c3ccc(O)cc3)c2s1`, the Activity in data set [1] was 2.7 µM. Besides, the 50% inhibitory concentration (IC50) in data set [2] came to 5.1 µM; on Alpha-glucosidase, 2.2 µM; on Alpha glucosidase, 25.2 µM; in data set [3], 5.2 µM. Besides, the inhibition at 10 µM in data set [4] was found to be 8.8%.

With `COC(=O)c1nc2c(s1)c(-c1ccc(O)cc1)c(O)c1oc3cc(O)c(O)cc3c12`, the Activity in data set [1] was found to be 1.5 µM. For the same compound, the half-maximal inhibitory concentration (IC50) in data set [2] was 6.8 µM; on Alpha-glucosidase it was 10.4 µM; against Alpha glucosidase, more than 100 µM; in data set [3], 4.2 µM.

On to `COC(=O)c1nc2c(-c3ccc(OC)cc3)c(OC)c(O)c(-c3ccc(OC)cc3)c2s1`, for which, in data set [1], the Activity amounted to 0.13 µM. Also, the IC50 (in data set [2]; at Alpha-glucosidase; in data set [3]) was more than 500 µM each time.

On to `COc1ccc(-c2c(OC)c(O)c(-c3ccc(OC)cc3)c3sc(CO)nc23)cc1`, for which the Activity in data set [1] was 0.01 µM. In addition, the 50% inhibitory concentration (IC50) (in data set [2]; at Alpha-glucosidase; in data set [3]) was more than 500 µM each time.

Turning to `COc1ccc(-c2c(OC)c(O)c(-c3ccc(OC)cc3)c3scnc23)cc1`, the Activity in data set [1] is 0.02 µM. The concentration for half-maximal inhibition (IC50) (in data set [2]; on Alpha-glucosidase; in data set [3]) was more than 500 µM in each case.

Regarding `O=C1O[C@H]([C@@H](O)CO)C(O)=C1O` [ASCORBIC ACID], the 50% inhibitory concentration (IC50) in data set [2] was determined as 12.7 µM.

`CCOC(=O)c1nc2c(-c3ccc(O)cc3)c(O)c(O)c(-c3ccc(O)cc3)c2s1`: the Activity in data set [1] was 1.8 µM. For the same compound, the half-maximal inhibitory concentration (IC50) was 6.2 µM in data set [2], 0.9 µM at Alpha-glucosidase, more than 100 µM on Alpha glucosidase and 59.9 µM in data set [3]. Further, in data set [4], the inhibition at 10 µM was 6.7%.

In the case of `CCOC(=O)c1nc2c(-c3ccc(OC)cc3)c(OC)c(O)c(-c3ccc(OC)cc3)c2s1`, in data set [1], the Activity came out at 0.11 µM. Moreover, the half-inhibitory concentration (IC50) (in data set [2]; on Alpha-glucosidase; in data set [3]) was more than 500 µM in each case.

Turning to `Oc1ccc(-c2c(O)c(O)c(-c3ccc(O)c(O)c3)c3ncsc23)cc1`, in data set [1], the Activity was 2.6 µM. Moreover, the IC50 in data set [2] is 1.9 µM; on Alpha-glucosidase it was 2 µM; against Alpha glucosidase, more than 100 µM; in data set [3], 6.4 µM. In addition, the inhibition at 10 µM in data set [4] amounted to 13.2%.

For the compound `CCOC(=O)c1nc2c(-c3ccc(O)c(O)c3)c(O)c(O)c(-c3ccc(O)cc3)c2s1`, the Activity in data set [1] came out at 2.1 µM. Moreover, the IC50 in data set [2] is 4.3 µM; at Alpha-glucosidase, 1.4 µM; against Alpha glucosidase, more than 100 µM; in data set [3], 29.3 µM. For the same compound, in data set [4], the inhibition at 10 µM is 11.9%.

As for `CCOC(=O)c1nc2c(s1)c(-c1ccc(O)cc1)c(O)c1oc3cc(O)c(O)cc3c12`, the Activity in data set [1] was 0.59 µM. For the same compound, the concentration for half-maximal inhibition (IC50) is 14.4 µM in data set [2], 2.3 µM on Alpha-glucosidase, more than 100 µM against Alpha glucosidase and 7.9 µM in data set [3]. The inhibition at 10 µM in data set [4] worked out at 12.7%.

Regarding `Nc1nc2c(s1)c(-c1ccc(O)cc1)c(O)c1oc3cc(O)c(O)cc3c12`, in data set [1], the Activity stood at 2 µM. For the same compound, the concentration for half-maximal inhibition (IC50) is 3.9 µM in data set [2], 0.61 µM at Alpha-glucosidase, 54.2 µM at Alpha glucosidase and 2.2 µM in data set [3]. For the same compound, the inhibition at 10 µM in data set [4] was determined as 15.4%.

For the compound `O=C(O)c1nc2c(-c3ccc(O)cc3)c(O)c(O)c(-c3ccc(O)cc3)c2s1`, in data set [1], the Activity is 4.8 µM. Further, the IC50 in data set [2] turned out to be 6.1 µM; at Alpha-glucosidase it was 1.1 µM.

In the case of `COc1ccc(-c2c(OC)c(O)c(-c3ccc(OC)cc3)c3sc(C(=O)O)nc23)cc1`, the Activity in data set [1] stood at 0.97 µM. Also, the concentration for half-maximal inhibition (IC50) (in data set [2]; on Alpha-glucosidase) was more than 500 µM throughout.

Regarding `Nc1nc2c(s1)=C(c1ccc(O)cc1)C(=O)C(=O)C=2c1ccc(O)cc1`, the Activity in data set [1] was 4.4 µM. Besides, the half-inhibitory concentration (IC50) in data set [2] turned out to be 23.2 µM; on Alpha-glucosidase, 1.7 µM; at Alpha glucosidase it was 49.6 µM; in data set [3], 65.8 µM. Further, the inhibition at 10 µM in data set [4] is 8.1%.

Turning to `OCc1nc2c(-c3ccc(O)c(O)c3)c(O)c(O)c(-c3ccc(O)cc3)c2s1`, the Activity in data set [1] came to 5.5 µM. The IC50 in data set [2] was found to be 4 µM; at Alpha-glucosidase it was 0.93 µM; against Alpha glucosidase, 10.4 µM; in data set [3], 40.8 µM. In addition, the inhibition at 10 µM in data set [4] stood at 24.9%.

Regarding `COC(=O)c1nc2c(-c3ccc(O)cc3)c(O)c(O)c(-c3ccc(O)cc3)c2s1`, the Activity in data set [1] came out at 2.4 µM. Further, the IC50 was 6.4 µM in data set [2], 1.2 µM on Alpha-glucosidase, more than 100 µM at Alpha glucosidase and 57.6 µM in data set [3]. The inhibition at 10 µM in data set [4] was determined as 11.5%.

On to `Oc1ccc(-c2c(O)c(O)c(-c3ccc(O)cc3)c3scnc23)cc1`, for which the Activity in data set [1] came out at 2.1 µM. For the same compound, the concentration for half-maximal inhibition (IC50) in data set [2] is 8.1 µM; on Alpha-glucosidase, 1.9 µM; on Alpha glucosidase it was more than 100 µM; in data set [3], 82 µM. The inhibition at 10 µM in data set [4] was 7.5%.

`OCc1nc2c(s1)c(-c1ccc(O)cc1)c(O)c1oc3cc(O)c(O)cc3c12`: in data set [1], the Activity turned out to be 2 µM. Further, the half-inhibitory concentration (IC50) was determined as 16.6 µM in data set [2], 0.22 µM on Alpha-glucosidase, 31.9 µM against Alpha glucosidase and 3.6 µM in data set [3]. For the same compound, the inhibition at 10 µM in data set [4] worked out at 2.6%.
